From patent US11813250B2, “Topical formulations containing mTOR inhibitors” (Shanghai Aucta Pharmaceuticals Co., Ltd., priority 2020, dated 2023)
Values after ≈ are worked out from the molar mass of the structure shown. Read-outs that look alike come from different tables or passages of the source. Each block holds one compound with its values, some of them ahead of it.

Experiments:
[1] = Solubility in topical solvents; format: physicochemical; settings: organic solvent or mixture
Procedure: This example evaluated sirolimus and everolimus solubility and stability in various FDA approved topical solvents and co-solvent systems such as diethylene glycol monoethyl ether (Transcutol® P as manufactured by Gattefosse), N-Methyl-2-pyrrolidone (NMP), dimethyl sulfoxide (DMSO), ethanol, Caprylocaproyl polyoxyl-8 glycerides (Labrasol® as manufactured by Gattefosse) and propylene carbonate combined or alone.
The melting point of DMSO is 19° C. (66° F.; 292 K), thus it will freeze under refrigerated condition.

[2] = cited from earlier work
[3] = Everolimus isomer C stability study in various solvents at 50° C.; format: physicochemical
Procedure: The formulation of this example was prepared in substantially the same manner as the composition of Example 1.
Experiments were performed to study the stability of everolimus in Transcutol P, NMP, DMSO and propylene carbonate under 40° C. at concentration of 20 mg/ml and everolimus in Transcutol P, NMP, DMSO, ethanol, Labrasol and propylene carbonate under 50° C. at concentration of 80 mg/ml. […] DMSO, NMP and propylene carbonate stabilized sirolimus and everolimus and could be used as dissolving agents together or separately.
Everolimus concentrations are at 80 mg/ml in the solvent and co-solvent systems. The said solution was stored at 50° C. oven and samples were evaluated at time 0, 1 h, 2 h and 4 h.

[4] = Seco-Rapamycin in various solvents under 40° C. for 24 hr; format: physicochemical; settings: for percentage of Seco-Rapamycin in the overall amount of sirolimus: 40° C.
Procedure: (§1) Sirolimus concentrations are at 20 mg/ml in the solvent and co-solvent systems. The solution was stored at 40° C. oven and samples were evaluated at time 0, 1, 4 and 24 hours with HPLC analysis.
Seco-Rapamycin is a major decomposition product of sirolimus, the open ring conformation of Rapamycin (sirolimus), is also quantitated in the solvent systems. […] The initial concentrations of Seco-Rapamycin were undetectable in the tested samples. Less than 0.5% of sirolimus converted or degraded to Seco-Rapamycin in Propylene Carbonate, DMSO and NMP.

[5] = Sirolimus isomer C stability in various solvents under 40° C. for 24 hr (HPLC); format: physicochemical
Procedure: as §1

[6] = DMSO, room temperature, read-out: solubility in DMSO
[7] = N-Methyl-2-pyrrolidone (NMP), both room temperature and refrigerated condition, read-out: solubility in NMP
[8] = Transcutol P (diethylene glycol monoethyl ether), both room temperature and refrigerated condition, read-out: solubility in Transcutol P
[9] = propylene carbonate, both room temperature and refrigerated condition, read-out: solubility in propylene carbonate

solubility [1, 6]: > 200 mg/mL | solubility [1, 7]: > 100 mg/mL | solubility [1, 8]: > 100 mg/mL | solubility [1, 9]: > 100 mg/mL | Isomer C level (%) ([3]; everolimus 80 mg/ml in DMSO, 0 h): 1.63% | Isomer C level (%) ([3]; everolimus 80 mg/ml in DMSO, 1 h): 1.67% | Isomer C level (%) ([3]; everolimus 80 mg/ml in DMSO, 2 h): 1.73% | Isomer C level (%) ([3]; everolimus 80 mg/ml in DMSO, 4 h): 1.86% | Isomer C level (%) ([3]; everolimus 80 mg/ml in Ethanol, 0 h): 1.85% | Isomer C level (%) ([3]; everolimus 80 mg/ml in Ethanol, 1 h): 2.66% | Isomer C level (%) ([3]; everolimus 80 mg/ml in Ethanol, 2 h): 3.81% | Isomer C level (%) ([3]; everolimus 80 mg/ml in Ethanol, 4 h): 5.40% | Isomer C level (%) ([3]; everolimus 80 mg/ml in NMP, 0 h): 1.62% | Isomer C level (%) ([3]; everolimus 80 mg/ml in NMP, 1 h): 1.76% | Isomer C level (%) ([3]; everolimus 80 mg/ml in NMP, 2 h): 1.86% | Isomer C level (%) ([3]; everolimus 80 mg/ml in NMP, 4 h): 1.99% | Isomer C level (%) ([3]; everolimus 80 mg/ml in Propylene Carbonate, 0 h): 1.63% | Isomer C level (%) ([3]; everolimus 80 mg/ml in Propylene Carbonate, 1 h): 1.84% | Isomer C level (%) ([3]; everolimus 80 mg/ml in Propylene Carbonate, 2 h): 2.06% | Isomer C level (%) ([3]; everolimus 80 mg/ml in Propylene Carbonate, 4 h): 2.47% | Isomer C level (%) ([3]; everolimus 80 mg/ml in Transcutol P, 0 h): 1.71% | Isomer C level (%) ([3]; everolimus 80 mg/ml in Transcutol P, 1 h): 3.78% | Isomer C level (%) ([3]; everolimus 80 mg/ml in Transcutol P, 2 h): 5.26% | Isomer C level (%) ([3]; everolimus 80 mg/ml in Transcutol P, 4 h): 6.43% | increase of the assay of everolimus isomer C ([3]; from 0 h to 4 h in DMSO, propylene carbonate and NMP, 80 mg/ml): less than 1.5%
SMILES: CO[C@H]1C[C@@H]2CC[C@@H](C)[C@@](O)(O2)C(=O)C(=O)N2CCCC[C@H]2C(=O)O[C@H]([C@H](C)C[C@@H]2CC[C@@H](OCCO)[C@H](OC)C2)CC(=O)[C@H](C)/C=C(\C)[C@@H](O)[C@@H](OC)C(=O)[C@H](C)C[C@H](C)/C=C/C=C/C=C/1C [Everolimus]
water solubility [2]: poorly water-soluble

solubility [1, 6]: > 100 mg/mL | solubility [1, 7]: > 100 mg/mL | solubility [1, 8]: > 80 mg/mL | solubility [1, 9]: ~30 mg/mL (≈ 32.8 mM) | initial concentrations of Seco-Rapamycin ([4]; in the tested samples, time 0): undetectable | percentage of Seco-Rapamycin in the overall amount of sirolimus ([4]; sirolimus in 50% NMP + 50% DMSO, 4 h): 0.09% | percentage of Seco-Rapamycin in the overall amount of sirolimus ([4]; sirolimus in 50% NMP + 50% DMSO, 24 h): 0.13% | percentage of Seco-Rapamycin in the overall amount of sirolimus ([4]; sirolimus in DMSO, 4 h): 0.23% | percentage of Seco-Rapamycin in the overall amount of sirolimus ([4]; sirolimus in DMSO, 24 h): 0.44% | percentage of Seco-Rapamycin in the overall amount of sirolimus ([4]; sirolimus in NMP, 4 h): 0.12% | percentage of Seco-Rapamycin in the overall amount of sirolimus ([4]; sirolimus in NMP, 24 h): 0.26% | percentage of Seco-Rapamycin in the overall amount of sirolimus ([4]; sirolimus in Propylene Carbonate, 24 h): 0.08% | percentage of Seco-Rapamycin in the overall amount of sirolimus ([4]; sirolimus in Transcutol P, 0 h): 0.20% | percentage of Seco-Rapamycin in the overall amount of sirolimus ([4]; sirolimus in Transcutol P, 1 h): 0.23% | percentage of Seco-Rapamycin in the overall amount of sirolimus ([4]; sirolimus in Transcutol P, 4 h): 0.76% | percentage of Seco-Rapamycin in the overall amount of sirolimus ([4]; sirolimus in Transcutol P, 24 h): 1.06% | sirolimus converted to isomer C after time 0 ([5]; in NMP, DMSO and propylene carbonate within 24 hours): less than 1.5% | Isomer C level (%) ([5]; sirolimus 20 mg/ml in 50% NMP + 50% DMSO, 0 h): 1.07% | Isomer C level (%) ([5]; sirolimus 20 mg/ml in 50% NMP + 50% DMSO, 1 h): 1.15% | Isomer C level (%) ([5]; sirolimus 20 mg/ml in 50% NMP + 50% DMSO, 4 h): 1.46% | Isomer C level (%) ([5]; sirolimus 20 mg/ml in 50% NMP + 50% DMSO, 24 h): 1.46% | Isomer C level (%) ([5]; sirolimus 20 mg/ml in DMSO, 0 h): 1.51% | Isomer C level (%) ([5]; sirolimus 20 mg/ml in DMSO, 1 h): 1.23% | Isomer C level (%) ([5]; sirolimus 20 mg/ml in DMSO, 4 h): 1.72% | Isomer C level (%) ([5]; sirolimus 20 mg/ml in DMSO, 24 h): 2.50% | Isomer C level (%) ([5]; sirolimus 20 mg/ml in NMP, 0 h): 1.00% | Isomer C level (%) ([5]; sirolimus 20 mg/ml in NMP, 1 h): 1.02% | Isomer C level (%) ([5]; sirolimus 20 mg/ml in NMP, 4 h): 1.21% | Isomer C level (%) ([5]; sirolimus 20 mg/ml in NMP, 24 h): 1.46% | Isomer C level (%) ([5]; sirolimus 20 mg/ml in Propylene Carbonate, 0 h): 1.12% | Isomer C level (%) ([5]; sirolimus 20 mg/ml in Propylene Carbonate, 1 h): 1.12% | Isomer C level (%) ([5]; sirolimus 20 mg/ml in Propylene Carbonate, 4 h): 1.46% | Isomer C level (%) ([5]; sirolimus 20 mg/ml in Propylene Carbonate, 24 h): 2.77% | Isomer C level (%) ([5]; sirolimus 20 mg/ml in Transcutol P, 0 h): 4.93% | Isomer C level (%) ([5]; sirolimus 20 mg/ml in Transcutol P, 1 h): 7.11% | Isomer C level (%) ([5]; sirolimus 20 mg/ml in Transcutol P, 4 h): 8.14% | Isomer C level (%) ([5]; sirolimus 20 mg/ml in Transcutol P, 24 h): 8.18%
SMILES: CO[C@H]1C[C@@H]2CC[C@@H](C)[C@@](O)(O2)C(=O)C(=O)N2CCCC[C@H]2C(=O)O[C@H]([C@H](C)C[C@@H]2CC[C@@H](O)[C@H](OC)C2)CC(=O)[C@H](C)/C=C(\C)[C@@H](O)[C@@H](OC)C(=O)[C@H](C)C[C@H](C)/C=C/C=C/C=C/1C [Sirolimus]
water solubility [2]: poorly water-soluble
